This is an account of results in US20140127120A1, “THERAPEUTIC AGENT FOR BONE FRACTURE COMPRISING CARBON DIOXIDE AS AN ACTIVE INGREDIENT” (NEOCHEMIR INC., priority 2011, published 2014).

Each structure is given as a SMILES string.

Type in all cases: in vivo, rat
The subject of experiment [1] is 12-week-old SD rats. The experiment can be described thus: Bone fracture healing promoting effect in rats (simple femur fracture). Conditions: carbon dioxide absorption 20 minutes, X-ray. The text has this: Bone fracture healing promoting effect in rats (using a carbon dioxide external administration device as a means for absorbing a therapeutic agent for bone fracture, a bone growth promoting agent, or a therapeutic or prophylactic agent for bone diseases containing carbon dioxide as an active ingredient)
According to the literature (Kokubo, T et al., J Orthop Res. 2003 May; 21(3): 503-510), a simple fracture was made in a femur of 12-week-old SD rats (n=23). The rats were matched based on their body weight and were divided into two groups (a control group: n=11; a carbon dioxide absorption group: n=12). In the same procedures as Example 1 except for adopting 20 minutes of the carbon dioxide absorption time, carbon dioxide absorption into the fractured limb was conducted. After making a fracture, X-ray images of the femur were taken for 2 rats of each group at the first week, 3 rats of each group at the second week, and 6 rats of the control group and the carbon dioxide absorption group at the third week. After the completion of the test, all rats were euthanized and the femurs were collected from the rats.

The subject of experiment [2] is 5-Week-old SD rats. In words: Bone growth promoting effect in rats (transdermal carbon dioxide absorption via external administration device). The text has this:
Bone growth promoting effect in rats (using a carbon dioxide external administration device as a means for absorbing a therapeutic agent for bone fracture, a bone growth promoting agent, or a therapeutic or prophylactic agent for bone diseases containing carbon dioxide as an active ingredient)
5-Week-old SD rats were used as test animals. A carbon dioxide absorption aid consisting of 93.77% by weight of water, 5% by weight of glycerin, 0.65% by weight of carbomer, 0.15% by weight of sodium alginate, 0.15% by weight of sodium dihydrogen phosphate, 0.18% by weight of sodium hydroxide, 0.10% by weight of methylparaben was applied twice a week to a hair-shaved right lower limb of a rat of the carbon dioxide absorption group (n=6) in a thickness of 2 mm under anesthesia according to the patent document 7. The lower body of the rat was covered to seal with a bag having 4 cm width and 4 cm length and the top of the bag was bound tightly with a rubber band. Then, the bag was filled with 100% concentration of carbon dioxide through a vinyl tube from a carbon dioxide bomb in order to allow carbon dioxide to be absorbed for 10 minutes. The control group (n=3) was subjected to only the anesthetic procedure. The above mentioned procedures were continued for 3 months. After 3 months, the tibias of both legs were collected from all rats and the length of them was measured by X-ray. […]

Experiment [3] deals with 5-Week-old Wister rats. In words: Bone growth promoting effect in exercise-loaded rats. As to the method:
Bone growth promoting effect in exercise-loaded rats (using a carbon dioxide external administration device as a means for absorbing a therapeutic agent for bone fracture, a bone growth promoting agent, or a therapeutic or prophylactic agent for bone diseases containing carbon dioxide as an active ingredient)
5-Week-old Wister rats were matched based on their body weight and were divided into two groups (a control group: n=8; an exercise-loaded group: n=16). The running training for 30 minutes per day using an activity wheel was given to all rats for five continuous days. The exercise-loaded rats were matched based on the running distance on the fourth and fifth day as well as the body weight on the fifth day and were divided into two groups (a training group: n=8; a carbon dioxide absorption group: n=8). After shaving the lower body hair of all rats, the running training for 30 minutes per day using an activity wheel was given to the training group and the carbon dioxide absorption group. This training was done five times a week for 4 weeks. […] The tibias of both legs were collected from the rats, and then the entire length of the tibias was measured by X-ray. […] An auxotonic gristle plate of the tissue section was stained with Safranine O and its length was measured.

As for `O=C=O` [carbon dioxide], the “fracture healing at the first and second week” value in experiment [1] (first and second week) is recorded as “not healed”. Moreover, the “rats with fracture completely healed at the third week” value in experiment [1] (third week (control group 1/6)) was 6/7. Further, in experiment [2] (100% carbon dioxide to right lower limb 10 minutes twice a week for 3 months, X-ray, P<0.05, FIG. 1), the “length of the right tibia (ratio of the length between the right tibia and the left tibia) versus control group” value was “statistically significantly longer”. Besides, the “number of proliferating cells (PCNA staining of tibia auxotonic gristle area) versus control group” value in experiment [2] (after 3 months of carbon dioxide absorption, FIG. 2) is reported as “larger”. Moreover, the “length of the auxotonic gristle plate versus training group and control group” value in experiment [3] (4 weeks, Safranine O staining, FIG. 4) was “statistically significantly longer”. Moreover, the “length of tibias versus training group” value in experiment [3] (running training plus carbon dioxide absorption to both lower limbs 10 minutes, five times a week for 4 weeks, X-ray, P<0.1, FIG. 3) is recorded as “statistically significantly longer”.
